Reference: the METLIN SMRT retention time set (Domingo-Almenara et al. 2019)

Assay: gradient 5% acetonitrile 3 min, to 50% in 2 min, to 85% in 15 min, held 3 min, 100 µL/min
Settings: column: Zorbax Extend-C18 2.1 x 50 mm; eluents: water / acetonitrile, 0.1% formic acid
How it was run: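 Mixtures of ~100 pure standards were chromatographed on a Zorbax Extend-C18 column (2.1 × 50 mm, 1.8 μm) at 100 μL/min using water and acetonitrile, each with 0.1% formic acid. Detection used a quadrupole time-of-flight mass spectrometer in positive and negative ionization mode, and data collection spanned 3 months. Retention time was obtained from adduct peaks picked computationally and each checked manually.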

| SMILES | RP-LC retention time |
| --- | --- |
| CCc1ccccc1NC(=O)C(C)n1cnc2nc(N3CCCCC3)ncc2c1=O (centres undefined) | 882 s |
| Cc1cc(N2CCN(S(=O)(=O)c3ccc(F)cc3F)CC2)nc(NC2CCCCC2)n1 | 805 s |
| O=S(=O)(c1ccc2nncn2c1)N(Cc1ccc(F)cc1)c1cccc(F)c1 | 861 s |
| O=C(c1cnccn1)N1CCC2(CC1)CC(OCC1CC1)CCO2 (centres undefined) | 694 s |
| Cc1ccc(CN2CCC(CNC(=O)c3c(C)oc4nc(C)nc(N5CCOCC5)c34)CC2)cc1 | 629 s |
| CC(C)(Oc1ccc(Cl)cc1)C(=O)NCCNc1cc(-n2cccn2)ncn1 | 814 s |
| O=C(Nc1ccc(N2CCOCC2)cc1)C1CCCN(c2nccnc2Oc2ccccc2)C1 (centres undefined) | 852 s |
| COc1cc(OC)c(NC(=O)COc2cc(C)nc(N3CCCCCC3)n2)cc1Cl | 659 s |
| CCc1cccc(C)c1Nc1c(-c2cc(Br)ccc2O)nc2nc(C)cc(C)n12 | 1040 s |
| COCCN(Cc1ccsc1)C(=O)C1(c2cccs2)CCCC1 | 1070 s |
| CCCCC(=O)Nc1nc(-c2ccc3c(c2)N(C)C(=O)C(C)O3)cs1 (centres undefined) | 953 s |
| COc1ccccc1NS(=O)(=O)c1ccc2c(c1)CCCC(=O)N2 | 716 s |
| Cc1cnc(C(=O)N2[C@H]3CC[C@@H]2c2cnc(-c4ccc(F)cc4)nc2C3)cn1 | 874 s |
| CC(=O)Nc1nnc(SCc2cc(=O)c(OC(=O)c3ccccc3Cl)co2)s1 | 699 s |
| CCC(C)N(CC(=O)N1CCc2sccc2C1COc1ccccc1C)C(=O)COC (centres undefined) | 942 s |
| O=C(Cc1ccc(F)cc1)Nc1nc(-c2ccccc2)cs1 | 988 s |
| COc1cccc(Cn2cccc(S(=O)(=O)N3CCCCCC3)c2=O)c1 | 935 s |
| CC(C)OCCCNC(=O)c1ccc2c(=O)n(-c3ccccc3)c(N3CCCC3)nc2c1 | 777 s |
| O=C(NCCc1c[nH]c2ccccc12)C1CCCN(c2nnc(N3CCCC3=O)s2)C1 (centres undefined) | 690 s |
| CCN1c2ccccc2C(=O)NC12CCN(C(=O)NC1CCCCC1)CC2 | 771 s |
| CC1=C(C(=O)N2CCOCC2)C(c2c(F)cccc2Cl)C2=C(CC(C)(C)CC2=O)N1 (centres undefined) | 690 s |
| COCCn1cc(CCNC(=O)Nc2ccc(Br)c(C)c2)c2cccnc21 | 821 s |
| CCc1ccccc1NC(=O)N1CCCC(C)(C(=O)NCc2ccc(F)cc2)C1 (centres undefined) | 864 s |

| SMILES | RP-LC retention time |
| --- | --- |
| Cc1ccc(Nc2nc(C)cc(N3CCN(C(=O)Nc4ccccc4C)CC3)n2)cc1 | 704 s |
| COC(=O)c1c(NCCc2c[nH]c3ccccc23)c2ccccc2[nH]c1=O | 744 s |
| CSc1ccccc1NC(=O)c1c(C)sc2ncnc(N3CCCC(C)C3)c12 (centres undefined) | 1210 s |
| O=C(NCc1ccccn1)C1CCN(c2cnc(N3CCCC3)nc2)CC1 | 547 s |
| Cn1cc(S(=O)(=O)N2CCCCC2)cc1C(=O)Nc1ccc2c(c1)OCO2 | 924 s |
| Cc1ccc(C2Cn3nnc(-c4nc(-c5ccccc5Br)no4)c3CO2)c(C)c1 (centres undefined) | 1270 s |
| O=C(NCc1ccccc1Cl)C1CCN(c2nnc(-c3ccccc3)o2)CC1 | 847 s |
| O=C(CCC(=O)N1CCN(c2ccc(=O)n(-c3ccccc3)n2)CC1)N1CCOCC1 | 612 s |
| O=C(NCCSCc1ccco1)c1cc(-c2ccccn2)nc2ccccc12 | 885 s |
| CCOC(=O)c1ccc(-c2c(C(=O)OCC)oc3cc(O)c(CC)cc3c2=O)o1 | 955 s |
| Cc1nnc(-c2sccc2C)o1 | 742 s |
| O=C(c1cc(-c2cccc(Cl)c2)nc2ccccc12)N1CCN(c2ccccn2)CC1 | 766 s |
| Cc1cc(S(=O)(=O)C(CNC(=O)c2cccs2)c2ccco2)ccc1F (centres undefined) | 815 s |
| O=C(CSc1ccc(-n2cnc(-c3ccccc3)c2)nn1)Nc1ccc(F)cc1F | 816 s |
| Cc1ccc2c(C(=O)NCc3cc(F)cc(F)c3)cc(NC(=O)C(C)C)cc2n1 | 666 s |
| COCc1c(C(=O)O)nnn1Cc1ccccc1C | 714 s |
| O=C(Cn1cnc2c(nc3n2CCCCC3)c1=O)N1CCN(C2CCCCC2)CC1 | 585 s |
| Cn1nc(-c2ccncc2)nc1C1CN(S(=O)(=O)c2cccc(C(F)(F)F)c2)C1 | 715 s |
| COc1ccccc1NC(=O)NC(C(=O)N1CCc2ccccc21)C(C)C (centres undefined) | 723 s |
| O=C(Cn1cccc(-c2nc(-c3ccccc3)no2)c1=O)Nc1ccc(Br)cc1 | 968 s |
| CCC(CO)NCc1ccc(-c2ccc(Br)cc2)o1 (centres undefined) | 683 s |
| Cc1cc(C)c(C(=O)N2CCCC(C(=O)NCc3cccc(Br)c3)C2)[nH]1 (centres undefined) | 855 s |
| Nc1nc(N2CCC3(CC2)OCCO3)ncc1S(=O)(=O)c1ccccc1 | 808 s |

| SMILES | RP-LC retention time |
| --- | --- |
| CCCOC(=O)C1=C(C)NC2=C(C(=O)C(C(=O)OC)C(C)C2)C1c1ccccc1OC (centres undefined) | 906 s |
| Cc1cc(C2CCCN2C(=O)Cc2ccccc2F)no1 (centres undefined) | 723 s |
| Cc1cc(=O)n(CC(=O)NCc2ccc(F)cc2)c(N2CCOCC2)n1 | 647 s |
| Cc1cccc(NC(=O)Nc2ccc(C)n(CC(=O)O)c2=O)c1 | 721 s |
| Cc1oc(-c2[nH]ncc2C(=O)N2CCOCC2)cc1S(=O)(=O)NCC(C)C | 645 s |
| COc1cccc(OCC2c3ccsc3CCN2C(=O)CN(C(C)=O)C2CC2)c1 (centres undefined) | 807 s |
| CCn1c(=O)c(SCC(=O)NCCCN2CCCCC2C)nc2ccccc21 (centres undefined) | 602 s |
| Cc1cc(Cl)ccc1S(=O)(=O)N1CCN(C2CCN(Cc3ccccn3)C2=O)CC1 (centres undefined) | 608 s |
| CCCOc1ccc(CNC(=O)CN2CCN(Cc3ccc(F)cc3)C2=O)cc1 | 903 s |
| O=C1NC(c2cccc3ccccc23)Nc2ccc(Cl)cc21 (centres undefined) | 847 s |
| CCS(=O)(=O)N1CCC(Cc2nncn2-c2ccccc2)C1 (centres undefined) | 631 s |
| CC(C)c1cc(C(=O)Nc2ccc(F)c(Cl)c2)nn1C1CCS(=O)(=O)C1 (centres undefined) | 997 s |
| O=C(Nc1ccc(Br)cc1)C1CCCN(c2ncc(-c3ccccc3)cn2)C1 (centres undefined) | 1240 s |
| O=C(Nc1ccc(N2CCOCC2)cc1)C1CCCN(c2nccnc2Sc2ccccc2)C1 (centres undefined) | 945 s |
| COc1ccc(C(=O)N2C(C(=O)NC(C)C)COC23CCN(C(=O)CC(C)(C)C)CC3)cc1 (centres undefined) | 713 s |
| COc1ccc(-c2noc(-c3ccc(NCCCN4CCCC4)nn3)n2)cc1 | 642 s |
| Clc1ccccc1-c1noc(-c2nc(-c3ccncc3)no2)n1 | 1130 s |
| CNC(=O)C1CCN(c2nc3ccc(-c4ccncc4)nc3s2)CC1 | 568 s |
| O=S(=O)(Cc1ccccc1)N1CCN(Cc2cccc(F)c2)C2(CCOCC2)C1 | 745 s |
| CC(C)C(=O)NCC(c1ccccc1Cl)c1c[nH]c2ccccc12 (centres undefined) | 929 s |
| O=C(C1CCCN(S(=O)(=O)c2ccc(-c3ccn[nH]3)o2)C1)N1CCN(c2ccccn2)CC1 (centres undefined) | 607 s |
| COc1cccc(NC(=O)CSc2cc(N3CCN(c4ccccc4F)CC3)ncn2)c1 | 1060 s |
| O=S(=O)(c1cc(-c2cc(C(F)(F)F)on2)cs1)N(Cc1ccco1)C1CCCCC1 | 1300 s |

| SMILES | RP-LC retention time |
| --- | --- |
| Cc1cc(NC(=O)Nc2ccc3nnc(C4CCC4)n3c2)ccc1Br | 903 s |
| CCCNC(=O)CN1C(=O)CCn2nc(-c3cn(C)c4ccccc34)cc21 | 730 s |
| CCc1ccc(CNC(=O)C2CC(=O)N(c3ccc4oc(C)nc4c3)C2)cc1 (centres undefined) | 671 s |
| Cc1ccc2c(Nc3ccc(O)cc3)c(C(=O)OC(C)C)cnc2n1 | 640 s |
| COc1ncccc1CNS(=O)(=O)c1ccccc1 | 757 s |
| CCC(C)NC(=O)N1CC(Oc2ccccc2-c2nc(-c3ccccc3)no2)C1 (centres undefined) | 999 s |
| COC(=O)CNC(=O)N1c2ccccc2CC1c1nc(C(C)C)no1 (centres undefined) | 834 s |
| Cc1ccc(-c2nc3cnccn3c2NCCC(=O)NCc2cccs2)cc1 | 700 s |
| COc1cccc(-c2noc(C3CC(=O)N(c4ccc5c(c4)OCO5)C3)n2)c1OC (centres undefined) | 871 s |
| Cc1ccc(N2CCC(NC(=O)NC(C)C)C2=O)cc1 (centres undefined) | 688 s |
| COc1ccccc1C(=O)N1CCC2(CC1)NC(=O)c1cc(F)ccc1N2C | 752 s |
| O=C(c1ccc(F)c(Cl)c1)N1CCc2nc[nH]c2C1 | 592 s |
| Cc1cc(-c2nnc(-c3ccccc3)o2)c(C)n1CC(=O)NC(C)c1ccccc1 (centres undefined) | 921 s |
| CCN1C(=O)COc2ccc(-c3noc(C4CC(=O)N(c5ccc(OC)cc5)C4)n3)cc21 (centres undefined) | 842 s |
| CCOC(=O)c1noc2ncnc(NCC3CCN(Cc4ccccc4Cl)CC3)c12 | 603 s |
| Cc1cccc(C)c1NC(=O)CSc1cc(N2CCN(c3ccccc3F)CC2)ncn1 | 1100 s |
| Cc1cc(C)cc(-n2ncc3c(N4CCN(CCO)CC4)ncnc32)c1 | 649 s |
| CC(C)N1CCCn2cc(S(=O)(=O)Nc3ccc(Oc4ccccc4)cc3)cc2C1=O | 909 s |
| CC(C)(Oc1ccc(Cl)cc1)C(=O)NCCN1CCN(C(=O)c2cccs2)CC1 | 592 s |
| COc1cccc2c(Nc3ccc(N(C)C)cc3)cc(C(=O)N3CCSCC3)nc12 | 682 s |
